From US8778984B2, “Aldosterone synthase inhibitor” (Eli Lilly and Company, priority 2011, dated 2014)

Legend:
human cyp11B2 = target: T1, human cyp11B2 (Homo sapiens, UniProt P19099); experiment: Aldosterone Synthase Inhibitor Assay (V79-hcyp11B2 cells, aldosterone by LC-MS); format: cell-based; conditions: aldosterone production from 1 μM DOC, 24 hours incubation, geometric means, separate experiments
T1 construct: expressed in transfected cells
T1 sequence (P19099 25-503): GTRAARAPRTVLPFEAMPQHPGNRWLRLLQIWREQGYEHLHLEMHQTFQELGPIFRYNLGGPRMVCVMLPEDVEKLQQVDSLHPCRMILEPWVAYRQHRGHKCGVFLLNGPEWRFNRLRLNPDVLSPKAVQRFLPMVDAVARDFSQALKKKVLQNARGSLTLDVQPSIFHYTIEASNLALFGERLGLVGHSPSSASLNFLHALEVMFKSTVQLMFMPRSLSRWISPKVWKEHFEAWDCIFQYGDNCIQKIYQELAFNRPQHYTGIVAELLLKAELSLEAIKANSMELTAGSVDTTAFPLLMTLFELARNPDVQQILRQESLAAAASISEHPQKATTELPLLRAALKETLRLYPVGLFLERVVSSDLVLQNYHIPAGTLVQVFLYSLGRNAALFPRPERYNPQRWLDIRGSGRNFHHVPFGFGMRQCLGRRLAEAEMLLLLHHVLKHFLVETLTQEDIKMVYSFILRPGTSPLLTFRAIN
Method: Chinese hamster fibroblast cells (V79, ATCC™) constitutively expressing human cyp11B2 are established by transfection with a mammalian expression vector harboring the human cyp11B2 cDNA under CMV promoter and a neomycin antibiotic resistant gene for selection in mammalian cells. V79 cells are transfected in T225 cm^2 flasks with the lipofectamine transfection reagent and the human cyp11B2 cDNA. Positive clones are selected with the selection antibiotic geneticin at 1 mg/mL.
Aldosterone production from transfected cells is initiated by the addition of 1 μM DOC in the medium. After 24 hours incubation, 100 μL cell culture medium is collected and aldosterone concentration in the medium is determined using a liquid chromatography-mass spectrometry (LC-MS) method. […] The wells are then extracted 3× with EtOAc (150 μl) using the FX, combining the organic layers in a new 96-well plate. The solvent is dried in a GeneVac HT-4 or under nitrogen. […] A 25 μl aliquot of the sample is injected and a gradient from 20-100% ACN+0.1% formic acid (FA) in 1 min is initiated. Aldosterone elutes at 0.7 min. Starting conditions are held for 1 minute to re-equilibrate the column. An ABI 4000 tandem mass spectrometer is used for MS/MS analysis in the negative ion mode. […] The area under the peak from each transition is added together to comprise the signal from aldosterone and IS, respectively. […] The detection limit for aldosterone is […].
DOC and various concentrations of test compounds in 1:3 dilution increments are added to the cell culture medium. After 24 hours incubation, 100 μl of cell medium are collected and aldosterone concentration determined as described above. Data are fit to a 4 parameter-fit logistics curve to determine IC50 values.

[1] = test system: estradiol production from H295R cells; experiment: cells; format: cell-based, human; conditions: for inhibition of estradiol production (in words) / IC50: H295R cells; for IC50: Homo sapiens, NCI-H295R, 48 hours incubation, read-out: Estradiol IC50; for Selectivity ratio for aldosterone compared with estradiol: estradiol IC50 (H295R) relative to aldosterone IC50 (hcyp11B2)
Method: (§1) The human adrenocarcinoma cell line H295R is used to monitor the production of testosterone and estradiol in vitro. […] Various concentrations of test compounds in 1:3 dilution increments are added to the cell culture medium. After incubation for 48 hours, 100 μl culture medium is collected and d5-estradiol and d3-testosterone are added as ISs for estradiol and testosterone respectively.
(§2) An equal volume of sodium carbonate/sodium bicarbonate buffer (0.5 mol/L, pH 9.4) is added to the samples followed by freshly prepared dansyl chloride solution (50 μl, 20 mg/mL). Samples are mixed and incubated for 60 min at 60° C. The samples are then extracted 3× with EtOAc ([…]) using the FX, combining the organic layers in a new deep-well 96-well plate. The solvent is then dried in a GeneVac HT-4 or under nitrogen. The FX is used to reconstitute the samples in 50% MeOH/water ([…]) and the plates are heat-sealed.
(§3) A 40 μl aliquot of the sample is injected and a gradient from 20-100% MeOH in 0.95 min is initiated. An ABI QTRAP 4000 tandem mass spectrometer is used for MS/MS analysis in the positive ion mode. […] These peaks are separately integrated to give the peak areas. The area ratios of testosterone/IS and estradiol/IS are used to determine testosterone and estradiol concentrations by comparison to their respective standard curves. The detection limits for testosterone and estradiol are 0.1 ng/mL and 0.01 ng/mL respectively.

[2] = test system: testosterone production from H295R cells; experiment: cells; format: cell-based, human; conditions: for inhibition of testosterone production (in words) / IC50: H295R cells; for IC50: Homo sapiens, NCI-H295R, 48 hours incubation, read-out: Testosterone IC50; for Selectivity ratio for aldosterone compared with testosterone: testosterone IC50 (H295R) relative to aldosterone IC50 (hcyp11B2)
Method: as §1, §2, §3

[3] = target: T2, cynomolgus monkey cyp11B2 (Macaca fascicularis, UniProt A0A2K5UPL9); experiment: Cynomolgus Monkey Aldosterone Inhibition Assay; format: cell-based; conditions: V79 cells expressing cynomolgus monkey cyp11B2; n=1; read-out: relative IC50, cynomolgus monkey aldosterone inhibition assay
T2 construct: expressed in transfected cells; host or cells: Chinese hamster fibroblast V79 cells
T2 sequence (A0A2K5UPL9 1-503): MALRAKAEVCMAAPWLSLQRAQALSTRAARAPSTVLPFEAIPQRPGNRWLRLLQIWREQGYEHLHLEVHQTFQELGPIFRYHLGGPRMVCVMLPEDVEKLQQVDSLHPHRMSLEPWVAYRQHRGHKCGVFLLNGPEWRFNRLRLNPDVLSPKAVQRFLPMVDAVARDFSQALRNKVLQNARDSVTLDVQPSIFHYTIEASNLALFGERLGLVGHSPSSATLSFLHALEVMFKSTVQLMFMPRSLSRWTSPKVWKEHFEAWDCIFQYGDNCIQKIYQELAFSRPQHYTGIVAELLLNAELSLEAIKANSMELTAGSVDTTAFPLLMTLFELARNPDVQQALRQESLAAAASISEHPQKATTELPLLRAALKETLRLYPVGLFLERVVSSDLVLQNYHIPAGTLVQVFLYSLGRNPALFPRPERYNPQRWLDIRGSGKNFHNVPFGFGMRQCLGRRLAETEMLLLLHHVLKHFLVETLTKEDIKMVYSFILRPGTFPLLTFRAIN
Method: Chinese hamster fibroblast cells (V79) constitutively expressing cynomolgus monkey cyp11B2 is established by transfection with a mammalian expression vector harboring the cynomolgus monkey cyp11B2 cDNA. This cell line was used to measure the activity of compounds in inhibiting […] from cynomolgus monkey enzyme. Cell culture condition and aldosterone detection method is performed following the same protocol described in the “Aldosterone inhibition assay”.

[4] = target: cynomolgus monkey cyp11B1 (Macaca fascicularis, UniProt A0A2K5ULY1); experiment: Cynomolgus Monkey Cortisol Inhibition Assay; format: cell-based; conditions: V79 cells expressing cynomolgus monkey cyp11B1; n=1; read-out: relative IC50, cynomolgus monkey cortisol inhibition assay
Method: Chinese hamster fibroblast cells (V79) constitutively expressing cynomolgus monkey cyp11B1 is established by transfection with a mammalian expression vector harboring the cynomolgus monkey cyp11B1 cDNA. This cell line was used to measure the activity of compounds in inhibiting […] from cynomolgus monkey enzyme. Cell culture condition and cortisol detection method is performed following the same protocol described in the “cortisol inhibition assay”.

cynomolgus monkey cyp11B1, sequence (A0A2K5ULY1 entry or part of it): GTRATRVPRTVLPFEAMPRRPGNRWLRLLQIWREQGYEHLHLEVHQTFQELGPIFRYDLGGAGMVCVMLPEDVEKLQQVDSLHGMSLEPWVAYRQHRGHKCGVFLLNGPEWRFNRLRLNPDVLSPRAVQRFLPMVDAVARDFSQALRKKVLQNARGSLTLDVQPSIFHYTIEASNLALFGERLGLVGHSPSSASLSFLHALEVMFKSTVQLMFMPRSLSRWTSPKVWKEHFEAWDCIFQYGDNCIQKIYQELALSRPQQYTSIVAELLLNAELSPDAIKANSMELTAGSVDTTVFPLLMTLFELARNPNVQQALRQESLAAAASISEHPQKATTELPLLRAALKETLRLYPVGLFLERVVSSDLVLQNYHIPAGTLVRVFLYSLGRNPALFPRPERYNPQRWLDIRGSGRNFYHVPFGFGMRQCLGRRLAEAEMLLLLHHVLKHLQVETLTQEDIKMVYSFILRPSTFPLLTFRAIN

SMILES	IC50 (human cyp11B2) [nM]	inhibition of estradiol production (in words) [1]	IC50 [1] [nM]	Selectivity ratio for aldosterone compared with estradiol [1]	inhibition of testosterone production (in words) [2]	IC50 [2] [nM]	Selectivity ratio for aldosterone compared with testosterone [2]	IC50 [3] [nM]	IC50 [4] [nM]
CC1(C)C[C@H](c2ccc(C#N)cc2)c2cn[nH]c21 (single isomer, unassigned) [Example 1]	5	weak inhibition	13200	2640	weak inhibition	> 30000	>6000	2.46	209
CC1(C)CC(c2ccc(C#N)cc2F)c2cn[nH]c21 (single isomer, unassigned; isomer 1) [Example 49, 4-(6,6-Dimethyl-4,5-dihydro-1H-cyclopenta[c]pyrazol-4-yl)-3-fluoro-benzonitrile, isomer 1]	7	weak inhibition	22000	3143	weak inhibition	> 30000	>4285	4.1	579
